In patent US10385103B2, “Cell-permeable (ICP)-SOCS3 recombinant protein and uses thereof” (CELLIVERY THERAPEUTICS, INC., priority 2014, dated 2019):

System: RAW 264.7 cells
Experiment: Quantitative cell-permeability of FITC-labeled aMTD- or rPeptide-fused CRA recombinant proteins (flow cytometry)
Assay type: cell-based
Settings: for Relative Ratio to aMTD AVE: cell-permeability of rPeptide-fused CRA recombinant protein relative to average of 240 aMTDs
Excerpt: The aMTDs and rPeptides were fluorescently labeled and compared based on the critical factors for cell-permeability by using flow cytometry and confocal laser scanning microscopy (FIGS. 5 to 8). The cellular uptake of the peptide-fused non-functional cargo recombinant proteins could quantitatively be evaluated in flow cytometry, while confocal laser scanning microscopy allows intracellular uptake to be assessed visually. The analysis included recombinant proteins fused to a negative control [rP38] that has opposite characteristics (hydrophilic and aromatic sequence: […] NO: 952)) to the aMTDs (hydrophobic and aliphatic sequences). Relative cell-permeability (relative fold) of aMTDs to the negative control was also analyzed (Table 23 and FIG. 9). […] RAW 264.7 cells were treated with 10 μM FITC-labeled recombinant proteins for 1 hour at 37° C., washed three times with cold PBS, treated with 0.25% tripsin/EDTA (Sigma-Aldrich, St. Louis, Mo.) for 20 minutes at 37° C. to remove cell-surface bound proteins. Cell-permeability of these recombinant proteins were analyzed by flow cytometry (Guava, Millipore, Darmstadt, Germany) using the FlowJo cytometric analysis software (FIGS. 5 to 6).

[1] = cell-permeability of aMTD-fused CRA recombinant protein relative to negative control (A: rP38)
[2] = cell-permeability of aMTD-fused CRA recombinant protein relative to reference CPP (B: MTM12)
[3] = cell-permeability of aMTD-fused CRA recombinant protein relative to reference CPP (C: MTD85)
[4] = 10 μM FITC-labeled, 1 hour, 37° C., RAW 264.7 cells
[5] = cell-permeability relative to negative control rP38 (A type), aMTD-fused CRA recombinant protein, 10 μM FITC-labeled, 1 hour, 37° C., RAW 264.7 cells
[6] = cell-permeability relative to reference CPP MTD85 (C type), aMTD-fused CRA recombinant protein, 10 μM FITC-labeled, 1 hour, 37° C., RAW 264.7 cells
[7] = cell-permeability relative to reference CPP MTM12 (B type), aMTD-fused CRA recombinant protein, 10 μM FITC-labeled, 1 hour, 37° C., RAW 264.7 cells

| Substance | Relative Ratio (Fold) A [1] [Fold] | Relative Ratio (Fold) B [2] [Fold] | Relative Ratio (Fold) C [3] [Fold] | Relative Ratio to aMTD AVE [4] | Relative Ratio (Fold) A [5] [Fold] | Relative Ratio (Fold) C [6] [Fold] | Relative Ratio (Fold) B [7] [Fold] |
| --- | --- | --- | --- | --- | --- | --- | --- |
| 505 (AIIIVIAPAAAP; Amino acid Sequence of aMTD505) [compound 505] | 12.4 | 8.3 | 4.2 | – | – | – | – |
| 934 (LILAPAAVVAAA; Amino acid Sequence of rPeptide ID 934) [compound 934] | – | – | – | 0.28 | – | – | – |
| 222 (ALLIAPAAVIAP; Amino acid Sequence of aMTD222) [compound 222] | 32.6 | 21.7 | 11.0 | – | – | – | – |
| 12 (LLAAVPAVLLAP; Amino acid Sequence of aMTD12) [compound 12] | – | – | – | – | 2.2 | 0.7 | 1.5 |
| 161 (AVIALPALIAAP; Amino acid Sequence of aMTD161) [compound 161] | 34.5 | 23.0 | 11.6 | – | – | – | – |
| 867 (ALLVVIAPLAAP; Amino acid Sequence of aMTD867) [compound 867] | 13.2 | 8.8 | 4.4 | – | – | – | – |
| 465 (IAAVIVPVAALP; Amino acid Sequence of aMTD465) [compound 465] | 7.4 | 4.9 | 2.5 | – | – | – | – |
| 25 (IVAVAPALVALP; Amino acid Sequence of aMTD25) [compound 25] | – | – | – | – | 2.4 | 0.8 | 1.6 |
| 686 (AALVAVLPVALP; Amino acid Sequence of aMTD686) [compound 686] | 19.5 | 13.1 | 6.6 | – | – | – | – |
| 878 (IVALVAPAAVVP; Amino acid Sequence of aMTD878) [compound 878] | 10.3 | 6.9 | 3.5 | – | – | – | – |
| 445 (ALAALVPALVVP; Amino acid Sequence of aMTD445) [compound 445] | – | – | – | – | 6.9 | 2.3 | 4.6 |
| 141 (AVIVLPALAVAP; Amino acid Sequence of aMTD141) [compound 141] | 9.4 | 6.3 | 3.2 | – | – | – | – |
| 707 (IVALAVLPAVAP; Amino acid Sequence of aMTD707) [compound 707] | – | – | – | – | 7.3 | 2.5 | 4.9 |
| 706 (IVAVALLPAVAP; Amino acid Sequence of aMTD706) [compound 706] | 12.0 | 7.0 | 4.1 | – | – | – | – |
| 863 (AAVVLLPIIAAP; Amino acid Sequence of aMTD863) [compound 863] | 13.8 | 9.3 | 4.7 | – | – | – | – |
| 764 (AVALAVLPAVVP; Amino acid Sequence of aMTD764) [compound 764] | – | – | – | – | 5.0 | 1.7 | 3.4 |
| 183 (LLAAPVVIALAP; Amino acid Sequence of aMTD183) [compound 183] | – | – | – | – | 6.0 | 2.0 | 4.0 |
| 743 (AIAIALVPVALP; Amino acid Sequence of aMTD743) [compound 743] | 7.4 | 4.9 | 2.5 | – | – | – | – |
| 810 (VIVLAAPALAAP; Amino acid Sequence of aMTD810) [compound 810] | 120.0 | 80.3 | 40.6 | – | – | – | – |
| 542 (ALALIIVPAVAP; Amino acid Sequence of aMTD542) [compound 542] | 16.2 | 10.8 | 5.5 | – | – | – | – |
| 865 (AVLVIAVPAIAP; Amino acid Sequence of aMTD865) [compound 865] | 11.3 | 7.5 | 3.8 | – | – | – | – |

| Substance | Relative Ratio (Fold) A [1] [Fold] | Relative Ratio (Fold) B [2] [Fold] | Relative Ratio (Fold) C [3] [Fold] | Relative Ratio to aMTD AVE [4] | Relative Ratio (Fold) A [5] [Fold] | Relative Ratio (Fold) C [6] [Fold] | Relative Ratio (Fold) B [7] [Fold] |
| --- | --- | --- | --- | --- | --- | --- | --- |
| 121 (AIVALPALALAP; Amino acid Sequence of aMTD121) [compound 121] | – | – | – | – | 2.5 | 0.8 | 1.7 |
| 622 (ALIVLAAPVAVP; Amino acid Sequence of aMTD622) [compound 622] | 10.6 | 7.1 | 3.6 | – | 10.6 | 3.6 | 7.1 |
| 900 (ALVAVIAPVVAP; Amino acid Sequence of aMTD900) [compound 900] | 34.3 | 22.9 | 11.6 | – | – | – | – |
| 64 (AIVALPVAVLAP; Amino acid Sequence of aMTD64) [compound 64] | 15.8 | 10.6 | 5.3 | – | – | – | – |
| 83 (LAVAAPLALALP; Amino acid Sequence of aMTD83) [compound 83] | – | – | – | – | 1.4 | 0.5 | 0.9 |
| 872 (VLAAAVLPLVVP; Amino acid Sequence of aMTD872) [compound 872] | – | – | – | – | 7.3 | 2.5 | 4.9 |
| 683 (LAIVLAAPAVLP; Amino acid Sequence of aMTD683) [compound 683] | – | – | – | – | 5.5 | 1.9 | 3.2 |
| 227 (LAAIVPIAAAVP; Amino acid Sequence of rPeptide ID 227) [compound 227] | – | – | – | 0.08 | – | – | – |
| 65 (IAIVAPVVALAP; Amino acid Sequence of aMTD65) [compound 65] | – | – | – | – | 3.0 | 1.0 | 2.0 |
| 831 (IIVAVAPAAIVP; Amino acid Sequence of aMTD831) [compound 831] | 46.3 | 31.0 | 15.7 | – | – | – | – |
| 385 (IVAIAVPALVAP; Amino acid Sequence of aMTD385) [compound 385] | 38.8 | 25.9 | 13.1 | – | – | – | – |
| 585 (ALIVAIAPALVP; Amino acid Sequence of aMTD585) [compound 585] | – | – | – | – | 6.6 | 2.2 | 4.4 |
| 113 (PVAVALLIAVPP; Amino acid Sequence of rPeptide ID 113) [compound 113] | – | – | – | 0.61 | – | – | – |
| 687 (AILAVALPLLAP; Amino acid Sequence of aMTD687) [compound 687] | 12.0 | 7.0 | 4.1 | – | – | – | – |
| 845 (AAVVIAPLLAVP; Amino acid Sequence of aMTD845) [compound 845] | 35.8 | 24.0 | 12.1 | – | – | – | – |
| 848 (AVAIVVLPAVAP; Amino acid Sequence of aMTD848) [compound 848] | 10.0 | 6.7 | 3.4 | – | – | – | – |
| 105 (LLALAPAALLAP; Amino acid Sequence of aMTD105) [compound 105] | – | – | – | – | 4.0 | 1.3 | 2.6 |
| 5 (AAALLPVALVAP; Amino acid Sequence of aMTD5) [compound 5] | – | – | – | – | 3.1 | 1.0 | 2.1 |
| 888 (ILAVVAIPAAAP; Amino acid Sequence of aMTD888) [compound 888] | 71.0 | 47.5 | 24.0 | – | – | – | – |
| 824 (LIIVAAAPAVAP; Amino acid Sequence of aMTD824) [compound 824] | 32.8 | 21.9 | 11.1 | – | – | – | – |
